Results as given in patent US4399132A, “7-Beta-[alpha-syn-methoxyimino-alpha-(2-aminothiazol-4-yl)-aceta mido]-3-[(1,2,3-thiadiazol-5-ylthio)methyl]-3-cephem-4-carboxylic acid and C1 -C6 alkyl derivatives thereof” (American Cyanamid Company, priority 1981, dated 1983).
In brackets after ≈: the same amount, converted by molar mass. Where two headings read alike, the source gives them in different places.

How the values were obtained:
Assay in all cases: Mueller-Hinton agar dilution method (MIC)
Type in all cases: cell-based
Klebsiella pneumoniae = conditions: for MIC: Klebsiella pneumoniae
Enterobacter aerogenes = conditions: Klebsiella aerogenes
Enterobacter cloacae = tested on: Enterobacter cloacae
Serratia marcescens = conditions: read-out: Minimal Inhibitory Concentration
Proteus morganii = conditions: Morganella morganii, read-out: Minimal Inhibitory Concentration
Proteus rettgeri = conditions: Providencia rettgeri, read-out: Minimal Inhibitory Concentration
Escherichia coli = conditions: read-out: Minimal Inhibitory Concentration
Micrococcus luteus = conditions: read-out: Minimal Inhibitory Concentration
Description: (§1) The results appear in Tables I, II, and III.

Salmonella sp. = conditions: strain SSC-79-57, Table III, read-out: Minimal Inhibitory Concentration
Description: as §1

Salmonella (arizona) = conditions: read-out: Minimal Inhibitory Concentration
Acinetobacter sp. = conditions: read-out: Minimal Inhibitory Concentration
Pseudomonas aeruginosa = tested on: Pseudomonas aeruginosa
Enterococcus sp. = conditions: for MIC: Enterococcus
Staphylococcus aureus = tested on: Staphylococcus aureus
Klebsiella oxytoca = conditions: read-out: Minimal Inhibitory Concentration
Providencia stuartti = conditions: read-out: Minimal Inhibitory Concentration
Citrobacter sp. = conditions: read-out: Minimal Inhibitory Concentration
[1] = ATCC25922, strain ATCC 25922, Table III

CO/N=C(\C(=O)N[C@@H]1C(=O)N2C(C(=O)O)=C(CSc3snnc3C)CS[C@H]12)c1csc(N)n1 [Compound Ib(i), 7-β-[α-syn-methoxyimino-α-(2-aminothiazol-4-yl)acetamido]-3-[(1,2,3-thiadiazol-4-methyl-5-ylthio)methyl]-3-cephem-4-carboxylic acid]
MIC (Klebsiella pneumoniae; strain STFD-79-6, Table III, read-out: Minimal Inhibitory Concentration): ≤ 0.03 µg/mL
Minimal Inhibitory Concentration (Klebsiella pneumoniae; strain AD, Table III): ≤ .03 µg/mL
Minimal Inhibitory Concentration (Klebsiella pneumoniae; strain SSC-78-1, Table III): ≤ .03 µg/mL
MIC (Enterobacter aerogenes; strain STFD-79-14, Table III, read-out: Minimal Inhibitory Concentration): 0.12 µg/mL (≈ 0.227 µM)
MIC (Enterobacter cloacae; strain K-79-16, Table III, read-out: Minimal Inhibitory Concentration): 0.25 µg/mL (≈ 0.474 µM)
MIC (Serratia marcescens; strain QHC-77-2, Table III): 2 µg/mL (≈ 3.79 µM)
MIC (Serratia marcescens; strain TUL-78-15, Table III): 2 µg/mL (≈ 3.79 µM)
MIC (Proteus morganii; strain K-79-25, Table III): ≤ 0.03 µg/mL
MIC (Proteus rettgeri; strain N-76-1, Table III): ≤ 0.03 µg/mL
MIC (Escherichia coli; [1]): ≤ 0.03 µg/mL
MIC (Escherichia coli; strain #311, Table III): 0.06 µg/mL (≈ 0.114 µM)
MIC (Escherichia coli; strain ESS 22-31, Table III): ≤ 0.03 µg/mL
MIC (Escherichia coli; strain STFD-79-20, Table III): ≤ 0.03 µg/mL
MIC (Micrococcus luteus; strain PCI 1001, Table III): ≤ 0.03 µg/mL
MIC (Salmonella sp.): 1 µg/mL (≈ 1.9 µM)
MIC (Salmonella (arizona); strain QHC-77-3, Table III): 0.06 µg/mL (≈ 0.114 µM)
MIC (Acinetobacter sp.; strain K-77-1, Table III): 4 µg/mL (≈ 7.58 µM)
MIC (Acinetobacter sp.; strain STFD-79-17, Table III): 32 µg/mL (≈ 60.6 µM)
MIC (Pseudomonas aeruginosa; ATCC27853, strain ATCC 27853, Table III, read-out: Minimal Inhibitory Concentration): 64 µg/mL (≈ 121 µM)
MIC (Pseudomonas aeruginosa; strain 12-4-4, Table III, read-out: Minimal Inhibitory Concentration): 64 µg/mL (≈ 121 µM)
MIC (Pseudomonas aeruginosa; strain SSC-78-13, Table III, read-out: Minimal Inhibitory Concentration): 64 µg/mL (≈ 121 µM)
MIC (Enterococcus sp.; strain OSU-75-1, Table III, read-out: Minimal Inhibitory Concentration): 8 µg/mL (≈ 15.2 µM)
Minimal Inhibitory Concentration (Enterococcus sp.; strain SM-77-15, Table III): 8 µg/mL
MIC (Staphylococcus aureus; strain FU-79-19-2, Table III, read-out: Minimal Inhibitory Concentration): 0.5 µg/mL (≈ 0.948 µM)
MIC (Staphylococcus aureus; strain SSC-79-18, Table III, read-out: Minimal Inhibitory Concentration): 0.25 µg/mL (≈ 0.474 µM)
MIC (Staphylococcus aureus; strain SSC-80-15, Table III, read-out: Minimal Inhibitory Concentration): 1 µg/mL (≈ 1.9 µM)
MIC (Staphylococcus aureus; strain Smith, Table III, read-out: Minimal Inhibitory Concentration): 0.25 µg/mL (≈ 0.474 µM)

CC(=O)OCC1=C(C(=O)O)N2C(=O)[C@@H](NC(=O)Cc3cccs3)[C@H]2SC1 [II]
MIC (Klebsiella pneumoniae; read-out: Minimal Inhibitory Concentration, strain AD, Table III): 0.03 µg/mL (≈ 0.0757 µM)
MIC (Klebsiella pneumoniae; read-out: Minimal Inhibitory Concentration, strain SSC-78-1, Table I): 1 µg/mL (≈ 2.52 µM)
MIC (Klebsiella pneumoniae; read-out: Minimal Inhibitory Concentration, strain SSC-78-1, Table III): 1 µg/mL (≈ 2.52 µM)
MIC (Klebsiella pneumoniae; read-out: Minimal Inhibitory Concentration, strain STFD-79-6, Table III): 0.5 µg/mL (≈ 1.26 µM)
MIC (Klebsiella pneumoniae; read-out: Minimal Inhibitory Concentration, strain STFD-79-16, Table I): 1 µg/mL (≈ 2.52 µM)
MIC (Klebsiella oxytoca): 2 µg/mL (≈ 5.04 µM)
MIC (Enterobacter aerogenes; read-out: Minimal Inhibitory Concentration, strain STFD-79-14, Table I): 128 µg/mL (≈ 323 µM)
MIC (Enterobacter aerogenes; read-out: Minimal Inhibitory Concentration, strain STFD-79-14, Table III): > 128 µg/mL
MIC (Enterobacter cloacae; read-out: Minimal Inhibitory Concentration, strain K-79-16, Table I): > 128 µg/mL
MIC (Enterobacter cloacae; read-out: Minimal Inhibitory Concentration, strain K-79-16, Table III): > 128 µg/mL
MIC (Enterobacter cloacae; read-out: Minimal Inhibitory Concentration, strain K-81-46, Table I): 64 µg/mL (≈ 161 µM)
MIC (Serratia marcescens): > 128 µg/mL
MIC (Proteus morganii): > 128 µg/mL
MIC (Proteus rettgeri): > 128 µg/mL
MIC (Providencia stuartti): > 128 µg/mL
MIC (Escherichia coli; [1]): 2 µg/mL (≈ 5.04 µM)
MIC (Escherichia coli; strain #311, Table I): 4 µg/mL (≈ 10.1 µM)
MIC (Escherichia coli; strain #311, Table III): 4 µg/mL (≈ 10.1 µM)
MIC (Escherichia coli; strain ESS 22-31, Table III): ≤ 0.03 µg/mL
MIC (Escherichia coli; strain K-81-14, Table I): 64 µg/mL (≈ 161 µM)
MIC (Escherichia coli; strain STFD-79-20, Table I): 4 µg/mL (≈ 10.1 µM)
MIC (Escherichia coli; strain STFD-79-20, Table III): 2 µg/mL (≈ 5.04 µM)
MIC (Micrococcus luteus): 0.03 µg/mL (≈ 0.0757 µM)
MIC (Salmonella sp.): 64 µg/mL (≈ 161 µM)
MIC (Salmonella (arizona)): 2 µg/mL (≈ 5.04 µM)
MIC (Citrobacter sp.): 1 µg/mL (≈ 2.52 µM)
MIC (Acinetobacter sp.): > 128 µg/mL
MIC (Pseudomonas aeruginosa; ATCC27853, read-out: Minimal Inhibitory Concentration): > 128 µg/mL
MIC (Pseudomonas aeruginosa; read-out: Minimal Inhibitory Concentration): > 128 µg/mL
MIC (Enterococcus sp.; read-out: Minimal Inhibitory Concentration, strain OSU-75-1, Table I): 32 µg/mL (≈ 80.7 µM)
MIC (Enterococcus sp.; read-out: Minimal Inhibitory Concentration, strain OSU-75-1, Table III): 16 µg/mL (≈ 40.4 µM)
MIC (Enterococcus sp.; read-out: Minimal Inhibitory Concentration, strain SM-77-15, Table I): 32 µg/mL (≈ 80.7 µM)
MIC (Enterococcus sp.; read-out: Minimal Inhibitory Concentration, strain SM-77-15, Table III): 16 µg/mL (≈ 40.4 µM)
MIC (Staphylococcus aureus; read-out: Minimal Inhibitory Concentration, strain FU-79-19-2, Table I): 0.5 µg/mL (≈ 1.26 µM)
MIC (Staphylococcus aureus; read-out: Minimal Inhibitory Concentration, strain FU-79-19-2, Table III): 0.12 µg/mL (≈ 0.303 µM)
MIC (Staphylococcus aureus; read-out: Minimal Inhibitory Concentration, strain SSC-79-18, Table I): 0.25 µg/mL (≈ 0.631 µM)
MIC (Staphylococcus aureus; read-out: Minimal Inhibitory Concentration, strain SSC-79-18, Table III): 0.12 µg/mL (≈ 0.303 µM)
MIC (Staphylococcus aureus; read-out: Minimal Inhibitory Concentration, strain SSC-80-15, Table I): 0.5 µg/mL (≈ 1.26 µM)
MIC (Staphylococcus aureus; read-out: Minimal Inhibitory Concentration, strain SSC-80-15, Table III): 0.5 µg/mL (≈ 1.26 µM)
MIC (Staphylococcus aureus; read-out: Minimal Inhibitory Concentration, strain Smith, Table I): 0.12 µg/mL (≈ 0.303 µM)
MIC (Staphylococcus aureus; read-out: Minimal Inhibitory Concentration, strain Smith, Table III): 0.03 µg/mL (≈ 0.0757 µM)
